This note sets out measurements from US12312337B2, “Compounds and methods for treating cancer” (ANTIDOTE IP HOLDINGS, LLC, priority 2019, dated 2025).

The target of the experiment is T1, human AhR (Homo sapiens, UniProt P35869).
T1 construct: INDIGO's Aryl Hydrocarbon Receptor (AhR) Reporter Cells include the luciferase reporter gene functionally linked to an AhR-responsive promoter
T1 sequence (P35869 11-848): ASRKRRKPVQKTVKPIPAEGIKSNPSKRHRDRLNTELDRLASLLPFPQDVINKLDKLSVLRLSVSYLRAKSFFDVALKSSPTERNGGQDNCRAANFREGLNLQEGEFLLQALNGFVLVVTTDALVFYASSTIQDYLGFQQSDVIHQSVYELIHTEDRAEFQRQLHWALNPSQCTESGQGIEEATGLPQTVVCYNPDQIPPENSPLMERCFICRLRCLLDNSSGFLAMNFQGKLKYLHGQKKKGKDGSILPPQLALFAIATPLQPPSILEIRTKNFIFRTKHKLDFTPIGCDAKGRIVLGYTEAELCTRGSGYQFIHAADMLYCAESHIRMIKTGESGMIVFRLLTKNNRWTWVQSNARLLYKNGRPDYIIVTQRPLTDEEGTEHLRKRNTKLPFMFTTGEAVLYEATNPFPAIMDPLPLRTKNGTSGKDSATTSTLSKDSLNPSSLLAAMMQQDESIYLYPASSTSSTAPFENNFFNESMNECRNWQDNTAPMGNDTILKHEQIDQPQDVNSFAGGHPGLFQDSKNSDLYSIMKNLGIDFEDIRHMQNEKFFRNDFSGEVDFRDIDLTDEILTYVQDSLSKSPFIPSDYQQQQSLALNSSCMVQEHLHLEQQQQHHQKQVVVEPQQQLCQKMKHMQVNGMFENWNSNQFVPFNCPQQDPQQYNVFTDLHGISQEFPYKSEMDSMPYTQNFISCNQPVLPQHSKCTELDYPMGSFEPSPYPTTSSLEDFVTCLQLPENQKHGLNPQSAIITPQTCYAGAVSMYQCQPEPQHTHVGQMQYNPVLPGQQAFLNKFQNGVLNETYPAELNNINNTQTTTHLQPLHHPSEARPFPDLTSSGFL
Description: INDIGO AhR Reporter Assay (luciferase reporter cells, antagonist mode). The format is cell-based. The following applies: antagonist mode with 50 nM of VAF347 (AhR agonist); 22-24 hours incubation; luciferase RLU. An excerpt:
INDIGO's Aryl Hydrocarbon Receptor (AhR) Reporter Cells include the luciferase reporter gene functionally linked to an AhR-responsive promoter. Thus, quantifying changes in luciferase expression in the treated reporter cells provides a sensitive surrogate measure of the changes in AhR activity. The principle application of this reporter assay is in the screening of test samples to quantify any functional activity, either agonist or antagonist, that they may exert against human AhR. Reporter Cells incorporate the cDNA encoding beetle luciferase, a 62 kD protein originating from the North American firefly (Photinus pyralis). Luciferase catalyzes the mono-oxidation of D-luciferin in a Mg^2+-dependent reaction that consumes 02 and ATP as co-substrates, and yields as products oxyluciferin, AMP, PPi, CO2, and photon emission. Luminescence intensity of the reaction is quantified using a luminometer, and is reported in terms of Relative Light Units (RLU's). In brief, 200 μl of Reporter Cells was dispensed into wells of the assay plate and pre-incubated for 4-6 hours. Following the pre-incubation period, culture media were discarded and 200 µl/well of the prepared 1×-concentration treatment media were added. Following 22-24 hours of incubation, treatment media were discarded and Luciferase Detection Reagent was added. The intensity of light emission (in units of “Relative Light Units” (RLU)) from each assay well was quantified using a plate-reading luminometer. The assay was run as a competitive binding assay in the antagonist mode with 50 nM of VAF347, a known AhR agonist.
In Table 4, IC50 values are reported as A, B, C, or D. A represents an IC50 value of less than 100 nM. B represents an IC50 value of equal or greater than 100 nM and less than 500 nM. C represents an IC50 value of equal or greater than 500 nM and less than 1 μM. D represents an IC50 value of equal or greater than 1 μM.
In general terms: Reporter assays use an easily measured gene product as a stand-in for the process of interest.
Consider `Cc1ccccc1/N=N/c1ccc(NC(=O)c2ccnn2C)c(C)c1` [CH223191, reference compound], for which the IC50 (in general, the concentration that gives 50% inhibition) was 100 to 500 nM.

In turn, `Cn1nc(C(C)(C)C)cc1NC(=O)c1cc2ncccc2cc1Cl` [Compound 19, N-(3-tert-Butyl-1-methyl-1H-pyrazol-5-yl)-6-chloroquinoline-7-carboxamide] gave an IC50 of 100 to 500 nM.

Regarding `Cn1nc(C(F)(F)F)cc1NC(=O)c1cc2ncccc2cc1Cl` [Compound 27, 6-Chloro-N-[1-methyl-3-(trifluoromethyl)-1H-pyrazol-5-yl]quinoline-7-carboxamide], the IC50 is less than 100 nM.

Compound `Cn1nc(-c2ccccc2F)cc1NC(=O)c1cc2ncccc2cc1Cl` [Compound 29, 6-Chloro-N-[3-(2-fluorophenyl)-1-methyl-1H-pyrazol-5-yl]quinoline-7-carboxamide] came in with a concentration for half-maximal inhibition (IC50) of 100 to 500 nM.

Regarding `Cc1ccccc1-c1cc(NC(=O)c2cc3ncccc3cc2Cl)n(C)n1` [Compound 31, 6-Chloro-N-[1-methyl-3-(2-methylphenyl)-1H-pyrazol-5-yl]quinoline-7-carboxamide], the half-inhibitory concentration (IC50) is less than 100 nM.

`CCN(CC)S(=O)(=O)c1cc(NC(=O)c2cc3ncccc3cc2Cl)ccc1F` [Compound 33, 6-Chloro-N-(3-(N,N-diethylsulfamoyl)-4-fluorophenyl)quinoline-7-carboxamide] had a half-inhibitory concentration (IC50) of 500 to 1000 nM.

`CCN(CC)S(=O)(=O)c1cc(NC(=O)c2cc3ncccc3cc2Cl)ccc1Cl` [Compound 34, 6-Chloro-N-(4-chloro-3-(N,N-diethylsulfamoyl)phenyl)quinoline-7-carboxamide]: the IC50 lay within 100 to 500 nM.

Take `Cn1nc(C(F)(F)F)cc1NC(=O)c1ccc2cc(-c3ccccc3)cnc2c1` [Compound 40, N-[1-Methyl-3-(trifluoromethyl)-1H-pyrazol-5-yl]-3-phenylquinoline-7-carboxamide]: the 50% inhibitory concentration (IC50) was less than 100 nM.

In turn, `Cn1nc(-c2ccccc2C(F)(F)F)cc1NC(=O)c1cc2ncccc2cc1Cl` [Compound 44, 6-Chloro-N-(1-methyl-3-(2-(trifluoromethyl)phenyl)-1H-pyrazol-5-yl)quinoline-7-carboxamide] came in with an IC50 of 100 to 500 nM.

Compound `Cn1nc(-c2cccc(C(F)(F)F)c2)cc1NC(=O)c1cc2ncccc2cc1Cl` [Compound 48, 6-Chloro-N-{1-methyl-3-[3-(trifluoromethyl)phenyl]-1H-pyrazol-5-yl}quinoline-7-carboxamide] came in with an IC50 of 100 to 500 nM.

As for `Cc1ccc(F)cc1-c1cc(NC(=O)c2cc3ncccc3cc2Cl)n(C)n1` [Compound 50, 6-Chloro-N-[3-(5-fluoro-2-methylphenyl)-1-methyl-1H-pyrazol-5-yl]quinoline-7-carboxamide], the IC50 was less than 100 nM.

Compound `Cc1ccc(Cl)cc1-c1cc(NC(=O)c2cc3ncccc3cc2Cl)n(C)n1` [Compound 51, 6-Chloro-N-[3-(5-chloro-2-methylphenyl)-1-methyl-1H-pyrazol-5-yl]quinoline-7-carboxamide] displayed an IC50 of less than 100 nM.

`Cc1ccccc1-c1cnc2cc(C(=O)Nc3cc(C(F)(F)F)nn3C)ccc2c1` [Compound 52, N-[1-methyl-3-(trifluoromethyl)-1H-pyrazol-5-yl]-3-(2-methylphenyl) quinoline-7-carboxamide]: the IC50 is 100 to 500 nM.

For the compound `Cn1nc(C(F)(F)F)cc1NC(=O)c1ccc2cc(-c3ccccc3C(F)(F)F)cnc2c1` [Compound 53, N-[1-methyl-3-(trifluoromethyl)-1H-pyrazol-5-yl]-3-[2-(trifluoromethyl)phenyl]quinoline-7-carboxamide], the half-maximal inhibitory concentration (IC50) was in the range of 500 to 1000 nM.

For the compound `Cn1nc(C(F)(F)F)cc1NC(=O)c1ccc2cc(-c3ccccc3F)cnc2c1` [Compound 54, 3-(2-Fluorophenyl)-N-[1-methyl-3-(trifluoromethyl)-1H-pyrazol-5-yl]quinoline-7-carboxamide], the IC50 is less than 100 nM.

Compound `Cn1nc(C(F)(F)F)cc1NC(=O)c1ccc2cc(-c3cccc(C(F)(F)F)c3)cnc2c1` [Compound 55, N-[1-Methyl-3-(trifluoromethyl)-1H-pyrazol-5-yl]-3-[3-(trifluoromethyl)phenyl]quinoline-7-carboxamide] showed a half-maximal inhibitory concentration (IC50) greater than 1000 nM.
